Read-outs that look alike come from different tables or passages of the source.
How the values were obtained:
Jurkat (FADD−/−) cells = assay: Inhibition of TNF-induced programmed Jurkat (FADD−/−) cell necrosis (Cell Titer-Glo); type: cell-based, human; settings: Homo sapiens, Jurkat, 20 h, read-out: Cellular IC50 (M) Jurkat (FADD−/−)
Procedure, shortened: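 FADD-knockout Jurkat cells (5×10^5/mL) preincubated with compound, then given TNF (final 10 ng/mL) for 20 h at 37 °C. ATP measured by Cell Titer-Glo luminescence, normalised to untreated DMSO wells as 100% viability; IC50 from duplicate wells.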

[1] = Plasma concentration in mice after a single oral administration; type: in vivo; settings: single oral dose 10 mg/kg, 0.25-24 h
Experimental: An oral solution containing Compound RIP1-034 of the present application was freshly prepared with an aqueous solution containing 0.5% MC/0.25% Tween 80 on the day of administration. All animals were fasted overnight before administration, and were allowed to have free food intake 4 hours after administration. Each group included three mice, and each mouse was orally administered a single dose of 10 mg/kg on the day of the experiment. About 30 μL of whole blood was collected from the dorsal vein of the foot at 0.25, 0.5, 1, 2, 4, 6, 8, and 24 hours after administration, transferred to an anticoagulation tube containing heparin sodium and mixed thoroughly by inverting for several times. The collected blood sample was centrifuged at 4° C. and 4000 g for 5 min to collect plasma, and the plasma sample was dispensed into clean polyethylene microcentrifuge tubes, and then stored in a freezer at −75±15° C. until analysis. The actual administration volume was calculated based on the animal's body weight. All samples were analyzed by LC-MS/MS, and the concentration of the drug to be tested in the samples was determined by the standard curve method. The average plasma concentration in a group of three mice at each measurement time point after a single oral administration is shown in FIG. 3.

TNF-α induced shock = TNF-α induced shock test in mice; type: in vivo, C57BL/6 mice; settings: 10, 20 and 30 mg/kg, given 15 min before TNF-α; body temperature 0-6 h
Experimental: C57BL/6 mice were specially sterilized, and the animals are randomly grouped according to their body weight. 0.15 mg/mL TNF-α was prepared. Each mouse was injected with 200 μL TNF-alpha (30 μg per mouse) through the tail vein. 15 min before TNF-α induction, the drug was administered according to the body weight. At 0 h, 1 h, 2 h, 4 h, and 6 h, the body temperature of the mouse was detected by a small animal thermometer and recorded, and the state of the animal was observed during the test. After 6 h, the mice were euthanized with CO2. The experimental data was plotted by Graph Pad Prism 7, and expressed as mean±standard error (Mean±SEM). The area under the clinical scoring curve was analyzed by one-way ANOVA. p<0.05 is considered to have significant differences as compared to the control group.

human RIP1 = biological target: T1, human RIP1 (Homo sapiens, UniProt Q13546); assay: Inhibition of ADP-Glo RIP1 kinase activity; type: biochemical
T1 construct: made in house; host or cells: Sf-9 insect cells
T1 sequence (Q13546 1-671): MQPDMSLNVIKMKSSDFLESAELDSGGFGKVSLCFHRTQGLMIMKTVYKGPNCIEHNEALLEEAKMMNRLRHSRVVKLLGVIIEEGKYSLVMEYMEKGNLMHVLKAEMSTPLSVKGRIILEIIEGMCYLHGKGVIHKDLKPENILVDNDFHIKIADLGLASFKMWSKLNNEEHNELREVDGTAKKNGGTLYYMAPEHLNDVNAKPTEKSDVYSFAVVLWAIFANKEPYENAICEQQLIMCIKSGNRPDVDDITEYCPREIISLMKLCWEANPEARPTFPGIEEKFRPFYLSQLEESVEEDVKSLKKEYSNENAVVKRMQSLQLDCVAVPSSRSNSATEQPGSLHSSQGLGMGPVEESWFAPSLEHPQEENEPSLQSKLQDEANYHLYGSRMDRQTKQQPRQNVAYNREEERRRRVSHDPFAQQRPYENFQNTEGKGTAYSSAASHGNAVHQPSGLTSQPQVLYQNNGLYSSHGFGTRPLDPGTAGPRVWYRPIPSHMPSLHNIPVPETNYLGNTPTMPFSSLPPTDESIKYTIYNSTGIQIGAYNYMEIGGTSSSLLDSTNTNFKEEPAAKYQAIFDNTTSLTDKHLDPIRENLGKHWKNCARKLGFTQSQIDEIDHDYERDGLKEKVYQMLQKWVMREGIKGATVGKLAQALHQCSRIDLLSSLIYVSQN
Experimental: The human RIP1 gene was transduced into Sf-9 insect cells, and the RIP1 protein was purified by Ni+ affinity chromatography and then by S-200 molecular sieve to remove the protein multimers. The obtained RIP1 protein was stored at −70° C., and the activity of the RIP1 protein in catalyzing autophosphorylation was detected by the ADP-Glo™ Kinase Activity Assay Kit (Promega) and the inhibitory activity of the drug against the RIP1 kinase was determined.
100 nL of the compound was transferred to a 384-well assay plate. Two replicate wells were set for each concentration of each drug.
The RIP1 enzyme solution and ATP solution were formulated in an assay buffer (containing 50 mM HEPES pH 7.5, 30 mM MgCl2, 50 mM NaCl, 1 mM DTT, 0.02% CHAPS, and 0.5 mg/ml BSA). Then, 5 μL of the RIP1 enzyme solution (final concentration 50 nM) was added to the assay plate and incubated at room temperature for 1 h. 5 μL of the ATP solution (final concentration 10 μM) was added to the assay plate, and incubate at room temperature for 4 h. Then 5 μL of ADP-Glo reagent was added to the assay plate, and incubated at room temperature for 60 min. 5 μL of a kinase assay solution was added to the assay plate, and incubated at room temperature for 30 min. After readout on Envision, the inhibition rate in each well was calculated from the full-activity well and the background well, and the Ki of the compound was calculated by GraphPad Prism 7 software (using the Morrision equation to fit the curve and calculate the Ki).

[2] = TNF 10 ng/mL, intracellular ATP level

Structure (SMILES) | IC50 (Jurkat (FADD−/−) cells; [2]) | plasma concentration after oral administration [1] | decrease in body temperature due to systemic inflammatory response caused by TNF-α (TNF-α induced shock) | Ki (human RIP1) | IC50 (Jurkat (FADD−/−) cells)
CN1C(=O)[C@@H](NC(=O)c2nnc(Cc3ccccc3)[nH]2)COc2cc3[nH]nc(Cl)c3cc21 [RIP1-034] | 8.9e-10 M | can reach a desirable plasma concentration | effectively inhibits the decrease in body temperature | 6.35 nM | –
CN1C(=O)[C@@H](NC(=O)c2nnn(Cc3ccccc3)n2)COc2cc3nccnc3cc21 [RIP1-131] | 1.29e-09 M | – | – | 28.6 nM | –
CN1C(=O)[C@@H](NC(=O)c2noc(Cc3ccccc3)n2)COc2cc3occc3cc21 [RIP1-123] | 1.33e-09 M | – | – | 23.2 nM | –
CN1C(=O)[C@@H](NC(=O)c2cn(Cc3ccccc3)cn2)COc2cc3occc3cc21 [RIP1-120] | 2.56e-09 M | – | – | 20.7 nM | –
CN1C(=O)[C@@H](NC(=O)c2noc(Cc3ccccc3)n2)COc2cc3nccnc3cc21 [RIP1-132] | 4.57e-09 M | – | – | 19.3 nM | –
CN1C(=O)[C@@H](NC(=O)c2cn(Cc3ccccc3)cn2)COc2cc3[nH]nc(Cl)c3cc21 [RIP1-031] | 2.9e-10 M | – | – | 0.66 nM | –
Cc1nc2cc3c(cc2[nH]1)OC[C@H](NC(=O)c1cn(Cc2ccccc2)cn1)C(=O)N3C [RIP1-067] | – | – | – | 28.6 nM | 6.72e-09 M
Cc1nc2cc3c(cc2[nH]1)OC[C@H](NC(=O)c1cc(Cc2ccccc2)on1)C(=O)N3C [RIP1-061] | 5.86e-09 M | – | – | 44 nM | –
Cc1nc2cc3c(cc2[nH]1)OC[C@H](NC(=O)c1ncn(Cc2ccccc2)n1)C(=O)N3C [RIP1-068] | 7.62e-09 M | – | – | 42.8 nM | –
CN1C(=O)[C@@H](NC(=O)c2nnc(Cc3ccccc3)[nH]2)COc2ccc3cnccc3c21 [RIP1-107] | – | – | – | 8.9 nM | 1.07e-09 M

From US20210292340A1, “CELL NECROSIS INHIBITOR, PREPARATION METHOD THEREFOR AND USE THEREOF” (SHANGHAI INSTITUTE OF ORGANIC CHEMISTRY, CHINESE ACADEMY OF …, priority 2018, published 2021)
